Series [1] can be described thus: Solubility in 50 mM phosphate buffer at pH 7.4. The series is classed as physicochemical. The settings on record: aqueous buffer.
Series [2] concerns BT474 (human breast carcinoma). Kind of series: Methylene Blue Growth Inhibition Assay. The class given is cell-based. Particulars: BT-474, 72 h, BT474, 3 days. The protocol:
(§1) Tumor cell lines used in this assay were BT474 (human breast carcinoma) and LNCaP (lymph node metastasis of prostate cancer). HFF (normal human foreskin fibroblast) was also included. All cell lines were cultured in RPMI 1640 media (Invitrogen Corporation 22400-071) containing 10% Fetal Bovine Serum (FBS) at 37° C. in a humidified 5% CO2 incubator. Cells were harvested using trypsin/EDTA, counted using a hemacytometer and plated in 96-well tissue culture plates (Costar 35-3075), 100 uL per well, at the following densities: BT474 15,000 cells/well, LNCaP 5,000 cells/well and HFF 5,000 cells/well. 10 mM stocks of compounds in DMSO were serially diluted in DMSO through nine 3-fold dilutions in 96-well plates (Costar Corning 3363), and stored at −80C. The next day, compound dilutions were thawed and 4 uL of each transferred to 662 uL RPMI 1640+100 ug/mL gentamicin, resulting in twice the final required test concentrations. 100 uL of compounds diluted in RPMI 1640 were added to all cell lines. The final concentration of DMSO in all wells, including controls, was 0.3%. Cells were incubated at 37C, 5% CO2 for 3 days. Medium was removed by aspiration. Cell biomass was estimated by staining cells with 80 uL methylene blue (Sigma M9140, 0.5% in 50:50 ethanol:water), and incubating at room temperature for 1 hour. Stain was aspirated and the plates rinsed by immersion in water, then air-dried. Stain was released from cells by adding 100 uL of solubilizing solution (1% N-lauroyl sarcosine, sodium salt, Sigma L5125, in PBS) and incubating at room temperature for at least 30 minutes. Plates were shaken and the optical density at 620 nm was measured on a microplate reader. Percent inhibition of cell growth was calculated relative to vehicle-treated control wells. Concentration of compound that inhibits 50% of cell growth (IC50) was interpolated using non-linear regression (Levenberg-Marquadt) and the equation, y=Vmax*(1−(x̂n/K̂n+x̂n)))+Y2. [Ref: Mager, M. E. (1972) Data Analysis in Biochemistry and Biophysics. New York: Academic Press]

Series [3] concerns LNCaP (lymph node metastasis of prostate cancer). Nature of the series: Methylene Blue Growth Inhibition Assay. The class given is cell-based. The settings on record: Homo sapiens, 72 h, 3 days. The protocol: as §1
The test system of series [4] is HFF (normal human foreskin fibroblast). Nature of the series: Methylene Blue Growth Inhibition Assay. The class given is cell-based. The settings on record: 72 h, 3 days. The protocol:
as §1

Molecules are shown by their SMILES. Converted amounts (≈) assume the structure as drawn.

In series [1], `CCn1c(-c2nonc2N)nc2c(C#CC(C)(C)O)ncc(OCC(F)CN)c21` (single isomer, unassigned) [Example 17, 4-[7-[(3-amino-2-(−)-fluoropropyl)oxy]-2-(4-amino-1,2,5-oxadiazol-3-yl)-1-ethyl-1H-imidazo[4,5-c]pyridin-4-yl]-2-methyl-3-butyn-2-ol] had a solubility of 92 µM (≈ 37.1 µg/mL). Also, the figures for the IC50 in series [2], in series [3] and in series [4] were 0.022 µM, 0.012 µM and 6.25 µM, respectively.
In the case of `CCn1c(-c2nonc2N)nc2c(C#CC(C)(C)O)ncc(OCCC(N)C3CCSCC3)c21` (single isomer, unassigned; (-)) [Example 14, (−)-4-(2-(4-amino-1,2,5-oxadiazol-3-yl)-7-{[3-amino-3-(tetrahydro-2H-thiopyran-4-yl)propyl]oxy}-1-ethyl-1H-imidazo[4,5-c]pyridin-4-yl)-2-methyl-3-butyn-2-ol], the concentration in solution in series [1] (solubility) came to 151 µM (≈ 73.3 µg/mL). The IC50 was determined as 0.264 µM in series [2], 0.056 µM in series [3] and 19.2 µM in series [4].
In turn, `CCn1c(-c2nonc2N)nc2c(-c3ccccc3)ncc(OCCCN3CCOCC3)c21` [Compound R, 4-(1-ethyl-7-{[3-(4-morpholinyl)propyl]oxy}-4-phenyl-1H-imidazo[4,5-c]pyridin-2-yl)-1,2,5-oxadiazol-3-amine, reference compound] had an IC50 in series [4] of 19.9 µM.
`CCn1c(-c2nonc2N)nc2c(-c3ccccc3)ncc(OCC(O)CN3CCOCC3)c21` (centres unmarked) [Compound S, 1-{[2-(4-amino-1,2,5-oxadiazol-3-yl)-1-ethyl-4-phenyl-1H-imidazo[4,5-c]pyridin-7-yl]oxy}-3-(4-morpholinyl)-2-propanol, reference compound] showed an IC50 in series [4] of more than 30 µM.
In series [4], `CCn1c(-c2nonc2N)nc2c(-c3ccccc3)ncc(OCCN3CCOCC3)c21` [Compound T, 4-(1-ethyl-7-([2-(4-morpholinyl)ethyl]oxy)-4-phenyl-1H-imidazo[4,5-c]pyridin-2-yl)-1,2,5-oxadiazol-3-amine, reference compound] came in with an IC50 of 18.9 µM.
`CCn1c(-c2nonc2N)nc2cncc(OC3CCNCC3)c21` [Compound U, 4-[1-ethyl-7-(piperidin-4-yloxy)-1H-imidazo[4,5-c]pyridine-2-yl]-furazan-3-ylamine, reference compound] displayed an IC50 in series [4] of 6.47 µM.
The compound `CCn1c(-c2nonc2N)nc2c(-c3ccccc3)ncc(OCC3CCCNC3)c21` (centres unmarked) [Compound V, 4-{1-ethyl-4-phenyl-7-[(3-piperidinylmethyl)oxy]-1H-imidazo-[4,5-c]pyridin-2-yl}-1,2,5-oxadiazol-3-amine, reference compound] came in with an IC50 in series [4] of 0.57 µM. This IC50 is about 11-fold lower than that of the compound before.
`CCn1c(-c2nonc2N)nc2c(C#CC(C)(C)O)ncc(OCCCCN)c21` [Compound W, 4-[7-[(4-aminobutyl)oxy]-2-(4-amino-1,2,5-oxadiazol-3-yl)-1-ethyl-1H-imidazo[4,5-c]pyridin-4-yl}-2-methyl-3-butyn-2-ol, reference compound] returned an IC50 in series [4] of 22.1 µM.
Compound `CCn1c(-c2nonc2N)nc2c(C#CC(C)(C)O)ncc(OCCCN)c21` [Compound X, 4-{2-(4-amino-1,2,5-oxadiazol-3-yl)-7-[(3-aminopropyl)oxy]-1-ethyl-1H-imidazo[4,5-c]pyridin-4-yl}-2-methyl-3-butyn-2-ol, reference compound] yielded an IC50 in series [4] of 18.1 µM.
The same measure, in the same setting: in the case of `CCn1c(-c2nonc2N)nc2c(C#CC(C)(C)O)ncc(OCC3CCNCC3)c21` [Compound Y, 4-{2-(4-amino-1,2,5-oxadiazol-3-yl)-1-ethyl-7-[(4-piperidinylmethyl)oxy]-1H-imidazo[4,5-c]pyridin-4-yl}-2-methyl-3-butyn-2-ol, reference compound] it was more than 30 µM; in that of `CCn1c(-c2nonc2N)nc2c(C#CC(C)(C)O)ncc(OCCCNCCc3ccc(OC)cc3)c21` [Compound Z, 4-(2-(4-amino-1,2,5-oxadiazol-3-yl)-1-ethyl-7-{[3-({2-[4-(methyloxy)phenyl]ethyl}amino)propyl]oxy}-1H-imidazo[4,5-c]pyridin-4-yl)-2-methyl-3-butyn-2-ol, reference compound], 5.51 µM.
`CCn1c(-c2nonc2N)nc2c(C#CC(C)(C)O)ncc(OCCCNC3CCCC3)c21` [Example 3, 4-(2-(4-amino-1,2,5-oxadiazol-3-yl)-7-{[3-(cyclopentylamino)propyl]oxy}-1-ethyl-1H-imidazo[4,5-c]pyridin-4-yl)-2-methyl-3-butyn-2-ol]: in series [1], the concentration in solution (solubility) was 210 µM (≈ 95.2 µg/mL). For the same compound, the IC50 was 0.295 µM in series [2], 0.052 µM in series [3] and more than 30 µM in series [4].
`CCn1c(-c2nonc2N)nc2c(C#CC(C)(C)O)ncc(OCC[C@@H](N)C(C)C)c21` [Example 4, 4-[7-{[(3R)-3-amino-4-methylpentyl]oxy}-2-(4-amino-1,2,5-oxadiazol-3-yl)-1-ethyl-1H-imidazo[4,5-c]pyridin-4-yl]-2-methyl-3-butyn-2-ol] gave a solubility in series [1] of 206 µM (≈ 88.1 µg/mL). Besides, the IC50 in series [2] turned out to be 0.171 µM; in series [3] it was 0.036 µM; in series [4] it was 8.1 µM.
In series [1], `CCn1c(-c2nonc2N)nc2c(C#CC(C)(C)O)ncc(OCCCNC3CCC3)c21` [Example 5, 4-(2-(4-amino-1,2,5-oxadiazol-3-yl)-7-{[3-(cyclobutylamino)propyl]oxy}-1-ethyl-1H-imidazo[4,5-c]pyridin-4-yl)-2-methyl-3-butyn-2-ol] yielded a solubility of 86 µM (≈ 37.8 µg/mL). The values for the IC50 in series [2], in series [3] and in series [4] were 0.508 µM, 0.058 µM and 25.9 µM, respectively.
Compound `CCn1c(-c2nonc2N)nc2c(C#CC(C)(C)O)ncc(OC[C@@H](C)CNC3CC3)c21` [Example 6, 4-(2-(4-amino-1,2,5-oxadiazol-3-yl)-7-{[(2S)-3-(cyclopropylamino)-2-methylpropyl]oxy}-1-ethyl-1H-imidazo[4,5-c]pyridin-4-yl)-2-methyl-3-butyn-2-ol] yielded a solubility in series [1] of 27 µM (≈ 11.9 µg/mL). The figures for the IC50 in series [2], in series [3] and in series [4] were 0.593 µM, 0.066 µM and 11.5 µM, respectively.
Compound `CCn1c(-c2nonc2N)nc2c(C#CC(C)(C)O)ncc(OCC(C)(C)CN)c21` [Example 7, 4-[7-[(3-amino-2,2-dimethylpropyl)oxy]-2-(4-amino-1,2,5-oxadiazol-3-yl)-1-ethyl-1H-imidazo[4,5-c]pyridin-4-yl]-2-methyl-3-butyn-2-ol] returned a solubility in series [1] of 209 µM (≈ 86.4 µg/mL). Also, the values for the IC50 in series [2], in series [3] and in series [4] were 0.137 µM, 0.031 µM and 26.2 µM, respectively.
For `CCn1c(-c2nonc2N)nc2c(C#CC(C)(C)O)ncc(OC[C@@H](C)CN)c21` [Example 8, 4-[7-{[(2S)-3-amino-2-methylpropyl]oxy}-2-(4-amino-1,2,5-oxadiazol-3-yl)-1-ethyl-1H-imidazo[4,5-c]pyridin-4-yl]-2-methyl-3-butyn-2-ol], in that order: 141 µM (≈ 56.3 µg/mL), 0.202 µM, 0.053 µM and 22.4 µM.
In turn, `CCn1c(-c2nonc2N)nc2c(C#CC(C)(C)O)ncc(OCC[C@H](C)N)c21` [Example 9, 4-[7-{[(3S)-3-aminobutyl]oxy}-2-(4-amino-1,2,5-oxadiazol-3-yl)-1-ethyl-1H-imidazo[4,5-c]pyridin-4-yl]-2-methyl-3-butyn-2-ol] gave a solubility in series [1] of 119 µM (≈ 47.5 µg/mL). The IC50 in series [2] came out at 0.504 µM; in series [3], 0.071 µM; in series [4], 14.5 µM.
For `CCn1c(-c2nonc2N)nc2c(C#CC(C)(C)O)ncc(OCCCNCC3CC3)c21` [Example 10, 4-[2-(4-amino-1,2,5-oxadiazol-3-yl)-7-({3-[(cyclopropylmethyl)amino]propyl}oxy)-1-ethyl-1H-imidazo[4,5-c]pyridin-4-yl]-2-methyl-3-butyn-2-ol], in series [1], the concentration in solution (solubility) came to 140 µM (≈ 61.5 µg/mL). In addition, the figures for the IC50 in series [2], in series [3] and in series [4] were 0.249 µM, 0.066 µM and 17.5 µM, respectively.
As for `CCCC(CN)COc1cnc(C#CC(C)(C)O)c2nc(-c3nonc3N)n(CC)c12` (centres unmarked) [Example 11, 4-[7-{[2-(aminomethyl)pentyl]oxy}-2-(4-amino-1,2,5-oxadiazol-3-yl)-1-ethyl-1H-imidazo[4,5-c]pyridin-4-yl]-2-methyl-3-butyn-2-ol], the concentration in solution in series [1] (solubility) was 203 µM (≈ 86.8 µg/mL). For the same compound, the IC50 in series [2] turned out to be 0.225 µM; in series [3] it was 0.057 µM; in series [4], 15 µM.

A word on the solubility: it is how much of the substance goes into solution per volume. In general, IC50 refers to the concentration that inhibits the measured activity by half. A high value points to weaker potency in that assay.

The values above are taken from US20090227616A1, “INHIBITORS OF AKT ACTIVITY” (SMITHKLINE BEECHAM CORPORATION, a corporation, priority 2005, published 2009).
